The results in this text go back to patent US20220135622A1, “ANTIBACTERIAL PEPTIDES AND METHODS OF USE” (priority 2019, published 2022).

Where two headings read alike, the source gives them in different places.

In one assay the test system is E. coli BW25113. The format is cell-based, Escherichia coli. Put shortly:
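Growth inhibition: log-phase cells (OD600 ~0.001), peptides in 2-fold series up to 400–800 μM in MHB II, EDTA 0.5 mM (E. coli) or 0.125 mM (USA300), 4 h at 37 °C, ATP luminescence readout. MICs: inoculum at OD600 ~0.0002, with or without EDTA, 20 h at 37 °C, OD600 endpoint.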

Another assay has as its system K. pneumoniae. The format is cell-based, Klebsiella pneumoniae. On the procedure: (§1) Bacterial growth conditions. LB or Mueller Hinton II cation-adjusted broth (MHB II, BBL 212322) was prepared according to manufacturer's instructions and supplemented with arabinose at 0.02% for overnight growth or at indicated concentrations in the description of the figures. Bacterial cultures were grown at 37° C. When appropriate, media was supplemented with kanamycin (50 μg/mL), carbenicillin (50 μg/mL), chloramphenicol (12.5 or 25 μg/mL), hygromycin (200 μg/mL), and/or gentamicin (10 μg/mL).
(§2) Peptide sensitivity and MIC assays. Lyophilized peptides (Smartox Biotechnology, CPC Scientific. ABclonal) were solubilized to 10 mM in Tris buffer, pH 8, prior to making a 2-fold dilution series in MHBII cation adjusted broth with highest final assay concentration of 400-800 μM. Bacteria were grown to log phase and added to final OD600˜0.001. The final EDTA concentration was 0.5 mM for E. coli strains and 0.125 mM for USA300. The final volume of 10 μL/well in a 384 well black, clear bottom plate (Corning) was spun <1 min at <250×g and then incubated at 37° C. After 4 h, an equal volume (10 μL) of BacTiter-Glo™ (Promega) was added to each well and luminescence was read after 5 min on an EnVision plate reader (PerkinElmer). To measure the minimal inhibitory concentrations (MICs), bacteria from fresh overnight plates or log phase cultures were diluted with or without EDTA and peptides as described above to final OD600˜0.0002. Plates were incubated at 37° C. for 20 h before measuring OD600 with an EnVision plate reader.

For a further assay, the system named is A. baumannii. The format is cell-based, Acinetobacter baumannii. On the procedure:
as §1, §2

The subject of a further assay is P. aeruginosa. The format is cell-based, Pseudomonas aeruginosa. As to the method:
as §1, §2

As for Ac-RPMTARRWLEKRGL-NH2 [compound 202], the “MIC E. coli BW25113” value against E. coli BW25113 (Table 8) was determined as 50.0 µM. In the assay with K. pneumoniae (Table 8), the “MIC K. pneumoniae” value was more than 400.0 µM. For the same substance, the “MIC A. baumannii” value with A. baumannii (Table 8) was more than 400.0 µM. The “MIC R. aeruginosa” value in the assay with P. aeruginosa (Table 8) was more than 400.0 µM.
In the case of Ac-RPMTFRRFLEKWGL-NH2 [compound 73], the “MIC E. coli BW25113” value against E. coli BW25113 (Table 8) was found to be 50 µM. Moreover, in the assay on K. pneumoniae (Table 8), the “MIC K. pneumoniae” value turned out to be 200 µM. Further, the “MIC A. baumannii” value against A. baumannii (Table 8) was found to be 50 µM. The “MIC R. aeruginosa” value in the assay with P. aeruginosa (Table 8) turned out to be 800 µM.
Regarding Ac-RPMTMRRFLEKWGL-NH2 [compound 206], the “MIC E. coli BW25113” value in the assay with E. coli BW25113 (Table 8) was 200.0 µM. Besides, in the assay on K. pneumoniae (Table 8), the “MIC K. pneumoniae” value was determined as 200.0 µM. Moreover, the “MIC A. baumannii” value with A. baumannii (Table 8) was 200.0 µM. Also, the “MIC R. aeruginosa” value in the assay on P. aeruginosa (Table 8) turned out to be 200.0 µM.
On to Ac-RPMTSRRWLAKRGL-NH2 [compound 214], for which the “MIC E. coli BW25113” value with E. coli BW25113 (BW25113) was 100.0 µM. Besides, the “MIC K. pneumoniae” value in the assay with K. pneumoniae was more than 400.0 µM. Besides, in the assay with A. baumannii, the “MIC A. baumannii” value is more than 400.0 µM. Also, the “MIC R. aeruginosa” value in the assay on P. aeruginosa was more than 400.0 µM.
As to Ac-RPMTWRRFLAKRGL-NH2 [compound 203], the “MIC E. coli BW25113” value with E. coli BW25113 (BW25113) came to 200.0 µM. Besides, the “MIC K. pneumoniae” value in the assay with K. pneumoniae is more than 400.0 µM. The “MIC A. baumannii” value in the assay with A. baumannii worked out at 400.0 µM. For the same substance, the “MIC R. aeruginosa” value with P. aeruginosa was more than 400.0 µM.
Regarding Ac-RPMTWRRFLAKYGL-NH2 [compound 200], the “MIC E. coli BW25113” value in the assay with E. coli BW25113 (BW25113) was 50.0 µM. In addition, the “MIC K. pneumoniae” value against K. pneumoniae amounted to 200.0 µM. In addition, the “MIC A. baumannii” value against A. baumannii came out at 50.0 µM. The “MIC R. aeruginosa” value against P. aeruginosa was 50.0 µM.
As to Ac-YPMTARRFFEKWGLLR-NH2 [compound 94], the “MIC E. coli BW25113” value against E. coli BW25113 (Table 8) stood at 200.0 µM. Also, the “MIC K. pneumoniae” value against K. pneumoniae (Table 8) is more than 400.0 µM. Moreover, in the assay on A. baumannii (Table 8), the “MIC A. baumannii” value turned out to be 200.0 µM. The “MIC R. aeruginosa” value against P. aeruginosa (Table 8) was more than 400.0 µM.
In the case of Ac-YPMTARRFLQKWGLLR-NH2 [compound 72], in the assay on E. coli BW25113 (Table 8), the “MIC E. coli BW25113” value was determined as 400 µM. For the same substance, in the assay with K. pneumoniae (Table 8), the “MIC K. pneumoniae” value worked out at 400 µM. The “MIC A. baumannii” value against A. baumannii (Table 8) turned out to be 50 µM. In addition, the “MIC R. aeruginosa” value in the assay with P. aeruginosa (Table 8) came out at 800 µM.
Take Ac-YPMTFRRFLAKWGLLR-NH2 [compound 87]: the “MIC E. coli BW25113” value in the assay with E. coli BW25113 (Table 8) was 100.0 µM. For the same substance, in the assay with K. pneumoniae (Table 8), the “MIC K. pneumoniae” value is 25.0 µM. Moreover, in the assay on A. baumannii (Table 8), the “MIC A. baumannii” value came to 25.0 µM. Further, in the assay with P. aeruginosa (Table 8), the “MIC R. aeruginosa” value stood at 50.0 µM.
For Ac-YPMTLRRFLEKWGLLR-NH2 [compound 83], the “MIC E. coli BW25113” value in the assay with E. coli BW25113 (Table 8) amounted to 200.0 µM. Also, the “MIC K. pneumoniae” value against K. pneumoniae (Table 8) is 100.0 µM. Further, the “MIC A. baumannii” value against A. baumannii (Table 8) was 50.0 µM. Besides, in the assay on P. aeruginosa (Table 8), the “MIC R. aeruginosa” value came to 200.0 µM.
